Laboratory results from ChEMBL document CHEMBL5247609, “Novel nitric oxide-releasing derivatives of pyranocarbazole as antitumor agents: Design, synthesis, biological evaluation, and nitric oxide release studies” (Eur J Med Chem, 2022).
Active and inactive are the calls of the source. The calls are words filed in the database; no cut-off is given here.

Legend:
MDA-MB-231 [1] = assay: Induction of apoptosis in human MDA-MB-231 cells assessed as increase in cleaved PARP expression at 0.5 to 2 uM by Western blotting analysis; format: functional, cell-based; conditions: dose 0.5-2 µM
NCI-H460 = assay: Antiproliferative activity against human H460 cells assessed as reduction in cell viability after 96 hrs by MTT assay; format: functional, cell-based; conditions: NCI-H460, 96 h
MDA-MB-231 [2] = assay: Antitumor activity against human MDA-MB-231 cells xenografted in BALBC mouse assessed as inhibition of tumor growth at 150 mg/kg, IG administered every 3 days for 21 days relative to control; format: functional; conditions: MDA-MB-231, po, 504 h, time 21 day, read-out: TGI
MDA-MB-231 [3] = assay: Induction of apoptosis in human MDA-MB-231 cells assessed as early apoptotic cells measured at 5 uM after 48 hrs by FITC-Annexin-V and propidium iodide based flow cytometric analysis (reference value: 2.71%); format: functional
MX1 [4] = assay: Induction of apoptosis in human MX1 cells assessed as viable cells measured at 0.5 uM after 48 hrs by FITC-Annexin-V and propidium iodide based flow cytometric analysis (reference value: 88.4%); format: functional; conditions: read-out: Activity
[5] = Toxicity in BALBC mouse allografted with mouse EMT6 cells assessed as weight loss at 50 to 150 mg/kg, IG administered every 3 days for 21 days; format: organism-based; conditions: in vivo, po, 504 h, dose 50-150 mg/kg, time 21 day
MDA-MB-231 [6] = assay: Induction of apoptosis in human MDA-MB-231 cells assessed as late apoptotic cells measured at 1 uM after 48 hrs by FITC-Annexin-V and propidium iodide based flow cytometric analysis (reference value: 2.68%); format: functional
MX1 [7] = assay: Induction of apoptosis in human MX1 cells assessed as early apoptotic cells measured at 0.5 uM after 48 hrs by FITC-Annexin-V and propidium iodide based flow cytometric analysis (reference value: 6.30%); format: functional
MX1 [8] = assay: Induction of apoptosis in human MX1 cells assessed as viable cells measured at 2 uM after 48 hrs by FITC-Annexin-V and propidium iodide based flow cytometric analysis (reference value: 88.4%); format: functional; conditions: read-out: Activity
MDA-MB-231 [9] = assay: Induction of apoptosis in human MDA-MB-231 cells assessed as early apoptotic cells measured at 0.5 uM after 48 hrs by FITC-Annexin-V and propidium iodide based flow cytometric analysis (reference value: 2.71%); format: functional
EMT6 = assay: Antitumor activity against mouse EMT6 cells allografted in BALBC mouse a assessed as reduction in tumor growth inhibition at 150 mg/kg, IG administered every 3 days for 21 days relative to control; format: functional; conditions: EMT6, po, 504 h, time 21 day, read-out: TGI
MDA-MB-231 [10] = assay: Inhibition of PI3K/Akt signaling in human MDA-MB-231 cells assessed as decrease in phosphorylated Akt expression level incubated for 24 hrs by Western blotting analysis; format: cell-based; conditions: dose 0.5-5 µM
MX1 [11] = assay: Induction of cell cycle arrest in human MX1 cells assessed as decrease in cyclin B1 expression at 0.5 to 2 uM by Western blotting analysis; format: functional, cell-based; conditions: dose 0.5-2 µM, time 24.0 hrs
MDA-MB-231 [12] = assay: Induction of apoptosis in human MDA-MB-231 cells assessed as late apoptotic cells measured at 2 uM after 48 hrs by FITC-Annexin-V and propidium iodide based flow cytometric analysis (reference value: 2.68%); format: functional
MDA-MB-231 [13] = assay: Induction of apoptosis in human MDA-MB-231 cells assessed as necrotic cells measured at 0.5 uM after 48 hrs by FITC-Annexin-V and propidium iodide based flow cytometric analysis (reference value: 0.253 %); format: functional
MX1 [14] = assay: Induction of apoptosis in human MX1 cells assessed as necrotic cells measured at 5 uM after 48 hrs by FITC-Annexin-V and propidium iodide based flow cytometric analysis (reference value: 0.055 %); format: functional
MX1 [15] = assay: Induction of apoptosis in human MX1 cells assessed as early apoptotic cells measured at 2 uM after 48 hrs by FITC-Annexin-V and propidium iodide based flow cytometric analysis (reference value: 6.30%); format: functional
MDA-MB-231 [16] = assay: Inhibition of PI3K/Akt signaling in human MDA-MB-231 cells assessed as decrease in phosphorylated S6 expression incubated for 24 hrs by Western blotting analysis; format: cell-based; conditions: dose 0.5-2 µM
MX1 [17] = assay: Induction of apoptosis in human MX1 cells assessed as early apoptotic cells measured at 5 uM after 48 hrs by FITC-Annexin-V and propidium iodide based flow cytometric analysis (reference value: 6.30%); format: functional
MDA-MB-231 [18] = assay: Induction of apoptosis in human MDA-MB-231 cells assessed as early apoptotic cells measured at 2 uM after 48 hrs by FITC-Annexin-V and propidium iodide based flow cytometric analysis (reference value: 2.71%); format: functional
MDA-MB-231 [19] = assay: Induction of apoptosis in human MDA-MB-231 cells assessed as necrotic cells measured at 1 uM after 48 hrs by FITC-Annexin-V and propidium iodide based flow cytometric analysis (reference value: 0.253 %); format: functional
MDA-MB-231 [20] = assay: Induction of apoptosis in human MDA-MB-231 cells assessed as early apoptotic cells measured at 1 uM after 48 hrs by FITC-Annexin-V and propidium iodide based flow cytometric analysis (reference value: 2.71%); format: functional
MDA-MB-231 [21] = assay: Induction of cell cycle arrest in human MDA-MB-231 cells assessed as decrease in cyclin B1 expression at 0.5 to 2 uM by Western blotting analysis; format: functional, cell-based; conditions: dose 0.5-2 µM, time 24.0 hrs
MDA-MB-231 [22] = assay: Antiproliferative activity against human MDA-MB-231 cells assessed as reduction in cell viability after 96 hrs by MTT assay; format: functional, cell-based; conditions: MDA-MB-231, 96 h
MDA-MB-231 [23] = assay: Induction of apoptosis in human MDA-MB-231 cells assessed as viable cells measured at 2 uM after 48 hrs by FITC-Annexin-V and propidium iodide based flow cytometric analysis (reference value: 94.4% ); format: functional; conditions: read-out: Activity
MDA-MB-231 [24] = assay: Antitumor activity against human MDA-MB-231 cells xenografted in ig dosed BALBc mouse assessed as inhibition of tumor growth administered every 3 days for 21 days; format: functional, organism-based; conditions: time 21.0 day
MDA-MB-231 [25] = assay: Induction of cell cycle arrest in human MDA-MB-231 cells assessed as increase in CDK6 expression at 0.5 to 2 uM by Western blotting analysis; format: functional, cell-based; conditions: dose 0.5-2 µM, time 24.0 hrs
MX1 [26] = assay: Induction of morphological changes in human MX1 cells assessed as decrease in cell size at 0.5 to 2 uM measured after 24 hrs by bright field inverted microscopic analysis; format: functional, cell-based; conditions: dose 0.5-2 µM
MDA-MB-231 [27] = assay: Antitumor activity against human MDA-MB-231 cells xenografted in BALBC mouse assessed as inhibition of tumor growth at 24 mg/kg, ip administered every 3 days for 21 days relative to control; format: functional; conditions: MDA-MB-231, 504 h, time 21 day, read-out: TGI
MDA-MB-231 [28] = assay: Induction of apoptosis in human MDA-MB-231 cells assessed as late apoptotic cells measured at 0.5 uM after 48 hrs by FITC-Annexin-V and propidium iodide based flow cytometric analysis (reference value: 2.68%); format: functional
MDA-MB-231 [29] = assay: Induction of morphological changes in human MDA-MB-231 cells assessed as decrease in cell number at 0.5 to 2 uM measured after 24 hrs by bright field inverted microscopic analysis; format: functional, cell-based; conditions: dose 0.5-2 µM
MDA-MB-231 [30] = assay: Antiproliferative activity against human MDA-MB-231 cells assessed as decrease in number of colony formation at 0.25 uM measured after 14 days by crystal violet staining based analysis; format: functional, cell-based; conditions: time 14.0 day

CC1(C)C=Cc2c(c(/C=C/C(=O)NCCOc3no[n+]([O-])c3S(=O)(=O)c3ccccc3)cc3c2[nH]c2ccc(C(C)(C)C)cc23)O1
Activity (MDA-MB-231 [1]): Active | IC50 (NCI-H460): 0.78 µM | inhibition in vivo at 150 mg/kg (MDA-MB-231 [2]): 53.6% | Activity (MDA-MB-231 [3]): 31.2% | viability at 0.5 µM (MX1 [4]): 54.8% | Activity [5]: Non-Toxic | Activity (MDA-MB-231 [6]): 4.85% | Activity (MX1 [7]): 39.8% | viability at 2 µM (MX1 [8]): 11.9% | Activity (MDA-MB-231 [9]): 3.12% | inhibition in vivo at 150 mg/kg (EMT6): 50.1% | inhibition (MDA-MB-231 [10]): Dose-Dependent Effect | Activity (MX1 [11]): Active | Activity (MDA-MB-231 [12]): 12.8% | Activity (MDA-MB-231 [13]): 0.644% | Activity (MX1 [14]): 0.276% | Activity (MX1 [15]): 85.3% | inhibition (MDA-MB-231 [16]): Active | Activity (MX1 [17]): 57.8% | Activity (MDA-MB-231 [18]): 10.8% | Activity (MDA-MB-231 [19]): 0.209% | Activity (MDA-MB-231 [20]): 3.76% | Activity (MDA-MB-231 [21]): Active | IC50 (MDA-MB-231 [22]): 0.05 µM | viability at 2 µM (MDA-MB-231 [23]): 75.9% | Activity (MDA-MB-231 [24]): Dose-Dependent Effect | Activity (MDA-MB-231 [25]): Active | Activity (MX1 [26]): Active | inhibition in vivo at 24 mg/kg (MDA-MB-231 [27]): 84.3% | Activity (MDA-MB-231 [28]): 3.85% | Activity (MDA-MB-231 [29]): Active | Activity (MDA-MB-231 [30]): Active
